For 22 compounds, IC50, Emax and EC50 results are on record in patent publication US9951088B2, “D2 receptor modulators and methods of use thereof in the treatment of diseases and disorders” (SUNOVION PHARMACEUTICALS INC., priority 2012, dated 2018).

The structures appear in SMILES notation. Where only a bound is given, the exact number is not on record here.

In assay [1] the target is T1, long isoform of human D2 receptor (Homo sapiens, UniProt P14416). Nature of the assay: Arrestin Antagonist Assay (DRD2L PathHunter CHO-K1 cells, vs EC80 dopamine). Conditions: for Emax: CHO-K1, read-out: β-arrestin (antagonist mode) Imax.
Assay [2] has as its target T1, long isoform of human D2 receptor. Nature of the assay: cAMP HTRF Agonist Assay (DRD2L PathHunter CHO-K1 cells, forskolin-stimulated). Conditions: for Emax: CHO-K1, read-out: cAMP (agonist mode) Emax. A general note: Time-resolved FRET reads energy transfer from a long-lived donor to a nearby acceptor.
Procedure: Cell Lines: Activities of the compounds were assessed using a Chinese Hamster Ovary (CHO—K1) cell line that recombinantly expressed the long isoform of human D2 receptor (DRD2L PathHunter cells). The D2 receptor DNA sequence was modified to contain a “ProLink” at its C-terminus which allowed complementation with an “enzyme acceptor” (EA)-tagged β-arrestin protein. The recruitment of the O-arrestin by the D2 receptor led to complementation of the ProLink and EA and formation of active β-galactosidase which generated a D2-specific signal that was measured. The cAMP assay was measured in the same D2-expressing cell line. The D2 receptor inhibited cAMP formation so that the basal levels of cAMP were increased by the addition of an adenylate cyclase stimulator, forskolin.
cAMP HTRF Agonist Assay: Two days prior to testing, a vial of high density stock of DRD2L PathHunter cells was thawed, and cells were diluted into 10 mL of growth media (Ham's F12/10% HI FBS/1% PSG) and used to seed a T225 flask containing 50 mL of growth media. Cells were cultured for 2 days.
On the day of the assay, cells were dissociated in 5 mL cell dissociation buffer (enzyme free—Invitrogen) for 10-15 minutes at 37° C. Dissociated cells were diluted with 10 mL of growth media and counted. Cell counts were routinely ˜2×10^7 per T225. Cells were then pelleted at 1500 rpm for 5 min. Supernatant was aspirated, and cells were re-suspended in HBSS/20 mM Hepes, pH 7.4 to a cell density of 1×10^6/mL.
cAMP levels were determined using the Cisbio HTRF method. HRTF reagents (cAMP-HTRF acceptor fluorophore (d2) conjugate and cryptate-labeled anti-cAMP antibody) were prepared according to maunfacturers instructions. 5 μL of each were added to each well of an assay plate and incubated for 1 h at RT. The plate was then read on an Envision reader using the HTRF protocol, and data were exported for analysis.
(§1) The agonist Emax results were expressed as a percent of the dopamine control response ((measured specific response/control specific agonist response)×100) obtained in the presence of test article. The EC50 values (concentration producing a half-maximal specific response) were determined by non-linear regression analysis of the concentration-response curves.
Assay [3] shares this target. Nature of the assay: Arrestin Agonist Assay (DRD2L PathHunter CHO-K1 cells, β-arrestin recruitment). The settings on record: for Emax: CHO-K1, read-out: β-arrestin (agonist mode) Emax.
Procedure: Cell Lines: Activities of the compounds were assessed using a Chinese Hamster Ovary (CHO—K1) cell line that recombinantly expressed the long isoform of human D2 receptor (DRD2L PathHunter cells). The D2 receptor DNA sequence was modified to contain a “ProLink” at its C-terminus which allowed complementation with an “enzyme acceptor” (EA)-tagged β-arrestin protein. The recruitment of the O-arrestin by the D2 receptor led to complementation of the ProLink and EA and formation of active β-galactosidase which generated a D2-specific signal that was measured.
Arrestin Agonist Assay: One day prior to testing, a vial of high density stock of DRD2L PathHunter cells was thawed, and 1×10^7 cells diluted into 40 mL of growth media (Ham's F12/10% HI FBS/1% PSG). 20 μL cells per well were seeded directly into assay plates, and the plates were allowed to rest for 1 h at RT before incubating in a plate incubator overnight.
5 μL diluted compound was added to cells in each well, and the assay plate was incubated for 90 min at 37° C. 12.5 μL PathHunter detection reagent was added to each well of the assay plate, which was then covered and incubated for 1 h at RT. The plate was read on an Envision reader using the Luminescence protocol, and the data were exported for analysis.
as §1

T1 sequence (P14416 whole entry, canonical isoform): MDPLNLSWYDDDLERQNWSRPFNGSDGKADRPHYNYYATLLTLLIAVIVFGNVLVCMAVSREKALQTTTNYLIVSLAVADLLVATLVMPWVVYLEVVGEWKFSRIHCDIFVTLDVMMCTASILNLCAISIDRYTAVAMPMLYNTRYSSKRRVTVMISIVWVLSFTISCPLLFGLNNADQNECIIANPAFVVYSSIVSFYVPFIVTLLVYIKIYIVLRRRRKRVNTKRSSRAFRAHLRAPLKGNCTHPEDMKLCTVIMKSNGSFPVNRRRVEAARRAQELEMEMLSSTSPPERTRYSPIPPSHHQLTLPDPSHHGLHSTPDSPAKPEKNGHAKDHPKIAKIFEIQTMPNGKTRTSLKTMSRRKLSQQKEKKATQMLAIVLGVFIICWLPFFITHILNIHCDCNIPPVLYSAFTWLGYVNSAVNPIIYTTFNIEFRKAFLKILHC

For `CN(C)c1ncnc2c1CCN(CCCCOc1ccc3c(c1)NC(=O)CC3)C2` [Compound 29, 7-(4-(4-(dimethylamino)-5,6-dihydropyrido[3,4-d]pyrimidin-7(8H)-yl)butoxy)-3,4-dihydroquinolin-2(1H)-one], in assay [1], the IC50 was in the range of 100 to 1000 nM and the Emax is greater than 75%. For the same compound, in assay [2], the 50% inhibitory concentration (IC50) was 10 to 100 nM and the Emax lay in the range of 25 to 50%. Moreover, in assay [3], the EC50 lay in the range of 100 to 1000 nM and the Emax fell in the range of 25 to 50%.
As for `CS(=O)(=O)Nc1cccc(OCCCCN2CCc3ccccc3C2)n1` [Compound 42, N-(6-(4-(3,4-dihydroisoquinolin-2(1H)-yl)butoxy)pyridin-2-yl)methanesulfonamide], in assay [1], the IC50 lay within 1000 to 10000 nM and the Emax was greater than 75%. In addition, in assay [2], the IC50 was greater than 10000 nM and the Emax was less than 10%. Moreover, in assay [3], the EC50 was greater than 10000 nM and the Emax is less than 10%.
As to `O=C1CCc2ccc(OCCCCN3CCc4nn(-c5ccc(F)cc5)cc4C3)cc2N1` [Compound 37, 7-(4-(2-(4-fluorophenyl)-6,7-dihydro-2H-pyrazolo[4,3-c]pyridin-5(4H)-yl)butoxy)-3,4-dihydroquinolin-2(1H)-one], in assay [1], the half-inhibitory concentration (IC50) was 10 to 100 nM and the Emax is greater than 75%. For the same compound, in assay [2], the IC50 is greater than 10000 nM and the Emax is less than 10%. In assay [3], the 50% effective concentration (EC50) was greater than 10000 nM and the Emax is less than 10%.
With `Clc1cccc2c1CCN(CCCCOc1cccc(-c3cc[nH]n3)n1)C2` [Compound 45, 2-(4-((6-(1H-pyrazol-3-yl)pyridin-2-yl)oxy)butyl)-5-chloro-1,2,3,4-tetrahydroisoquinoline], in assay [1], the 50% inhibitory concentration (IC50) is greater than 10000 nM and the Emax was less than 10%. Also, in assay [2], the 50% inhibitory concentration (IC50) is less than 10 nM and the Emax was greater than 75%. In assay [3], the 50% effective concentration (EC50) fell in the range of 10 to 100 nM and the Emax was greater than 75%.
Turning to `Cc1cccc(N2CCN(CCCCOc3ccc4cn[nH]c4c3)CC2)c1C` [Compound 95, 6-(4-(4-(2,3-dimethylphenyl)piperazin-1-yl)butoxy)-1H-indazole], in assay [1], the 50% inhibitory concentration (IC50) was 10 to 100 nM and the Emax is greater than 75%. For the same compound, in assay [2], the IC50 was 10 to 100 nM and the Emax was in the range of 10 to 25%. For the same compound, in assay [3], the half-maximal effective concentration (EC50) is greater than 10000 nM and the Emax was less than 10%.
On to `c1cc(OCCCCN2CCc3ccccc3C2)nc(-c2c[nH]cn2)c1` [Compound 51, 2-(4-((6-(1H-imidazol-4-yl)pyridin-2-yl)oxy)butyl)-1,2,3,4-tetrahydroisoquinoline], for which, in assay [1], the concentration for half-maximal inhibition (IC50) fell in the range of 100 to 1000 nM and the Emax was greater than 75%. In assay [2], the concentration for half-maximal inhibition (IC50) was greater than 10000 nM and the Emax is less than 10%. In assay [3], the 50% effective concentration (EC50) is greater than 10000 nM and the Emax was less than 10%.
Take `O=C1CCc2ccc(OCCCCN3CCc4sccc4C3)cc2N1` [Compound 27, 7-(4-(6,7-dihydrothieno[3,2-c]pyridin-5(4H)-yl)butoxy)-3,4-dihydroquinolin-2(1H)-one]: in assay [1], the IC50 is 10 to 100 nM and the Emax is greater than 75%. Further, in assay [2], the IC50 is less than 10 nM and the Emax fell in the range of 10 to 25%. Besides, in assay [3], the EC50 is greater than 10000 nM and the Emax is less than 10%.
In the case of `c1ccc(N2CCN(CCCCOc3ccc4cn[nH]c4c3)CC2)nc1` [Compound 94, 6-(4-(4-(pyridin-2-yl)piperazin-1-yl)butoxy)-1H-indazole], in assay [1], the IC50 was greater than 10000 nM and the Emax is less than 10%. In assay [2], the half-maximal inhibitory concentration (IC50) is less than 10 nM and the Emax is greater than 75%. Further, in assay [3], the EC50 is less than 10 nM and the Emax was greater than 75%.
Consider `Clc1cccc(N2CCN(CCCCOc3ccc4cn[nH]c4c3)CC2)c1` [Compound 98, 6-(4-(4-(3-chlorophenyl)piperazin-1-yl)butoxy)-1H-indazole], for which, in assay [1], the IC50 was in the range of 100 to 1000 nM and the Emax lay in the range of 25 to 50%. Also, in assay [2], the 50% inhibitory concentration (IC50) was 10 to 100 nM and the Emax fell in the range of 50 to 75%. In addition, in assay [3], the EC50 lay in the range of 10 to 100 nM and the Emax is 25 to 50%.
For the compound `O=C1CCc2ccc(OCCCCN3CCc4ccccc4C3)cc2N1` [Compound 91, 7-(4-(3,4-dihydroisoquinolin-2(1H)-yl)butoxy)-3,4-dihydroquinolin-2(1H)-one], in assay [1], the concentration for half-maximal inhibition (IC50) was 10 to 100 nM and the Emax is greater than 75%. Besides, in assay [2], the IC50 is less than 10 nM and the Emax lay within 25 to 50%. Further, in assay [3], the EC50 is less than 10 nM and the Emax was 10 to 25%.
As for `Cc1cccc(N2CCN(CCCCOc3ccc4cn[nH]c4n3)CC2)c1C` [Compound 3, 6-(4-(4-(2,3-dimethylphenyl)piperazin-1-yl)butoxy)-1H-pyrazolo[3,4-b]pyridine], the IC50 in assay [1] lay within 100 to 1000 nM; in assay [2], 10 to 100 nM. The Emax in assay [1] is greater than 75%; in assay [2] it was 10 to 25%; in assay [3], less than 10%. The compound also returned an EC50 in assay [3] greater than 10000 nM.
For `O=C1CCc2ccc(OCCCCN3CCc4c(cnn4-c4ccccc4)C3)cc2N1` [Compound 31, 7-(4-(1-phenyl-6,7-dihydro-1H-pyrazolo[4,3-c]pyridin-5(4H)-yl)butoxy)-3,4-dihydroquinolin-2(1H)-one], in assay [1], the IC50 was greater than 10000 nM and the Emax was less than 10%. Further, in assay [2], the IC50 is less than 10 nM and the Emax is greater than 75%. For the same compound, in assay [3], the EC50 is less than 10 nM and the Emax is greater than 75%.
With `O=c1ccc2ccc(OCCCCN3CCc4ccccc4C3)nc2[nH]1` [Compound 52, 7-(4-(3,4-dihydroisoquinolin-2(1H)-yl)butoxy)-1,8-naphthyridin-2(1H)-one], in assay [1], the IC50 fell in the range of 10 to 100 nM and the Emax was greater than 75%. In assay [2], the IC50 was less than 10 nM and the Emax is 50 to 75%. In addition, in assay [3], the EC50 was less than 10 nM and the Emax lay in the range of 10 to 25%.
As to `O=C1CCc2ccc(OCCCCN3CCc4nn(-c5ccccc5)cc4C3)nc2N1` [Compound 82, 7-(4-(2-phenyl-6,7-dihydro-2H-pyrazolo[4,3-c]pyridin-5(4H)-yl)butoxy)-3,4-dihydro-1,8-naphthyridin-2(1H)-one], in assay [1], the half-inhibitory concentration (IC50) fell in the range of 100 to 1000 nM and the Emax is greater than 75%. In assay [2], the half-inhibitory concentration (IC50) was greater than 10000 nM and the Emax is less than 10%. In assay [3], the EC50 was greater than 10000 nM and the Emax was less than 10%.
For `Cn1cc2c(n1)CCN(CCCCOc1ccc3c(c1)NC(=O)CC3)C2` [Compound 24, 7-(4-(2-methyl-6,7-dihydro-2H-pyrazolo[4,3-c]pyridin-5(4H)-yl)butoxy)-3,4-dihydroquinolin-2(1H)-one], the half-inhibitory concentration (IC50) was 1000 to 10000 nM in assay [1] and 10 to 100 nM in assay [2]. Besides, the values for the Emax in assay [1], in assay [2] and in assay [3] were 25 to 50%, greater than 75% and 25 to 50%, respectively. This compound also displayed an EC50 in assay [3] of 100 to 1000 nM.
Turning to `N#Cc1cccnc1N1CCN(CCCCOc2ccc3cccc(O)c3n2)CC1` [Compound 22, 2-(4-(4-((8-hydroxyquinolin-2-yl)oxy)butyl)piperazin-1-yl)nicotinonitrile], in assay [1], the half-maximal inhibitory concentration (IC50) lay within 100 to 1000 nM and the Emax was 25 to 50%. In assay [2], the IC50 was less than 10 nM and the Emax lay in the range of 25 to 50%. Moreover, in assay [3], the concentration for a half-maximal effect (EC50) lay in the range of 10 to 100 nM and the Emax lay in the range of 25 to 50%.
As to `O=C1NCCc2ccc(OCCCCN3CCc4cc(Cl)ccc4C3)nc2N1` [Compound 85, 8-(4-(6-chloro-3,4-dihydroisoquinolin-2(1H)-yl)butoxy)-4,5-dihydro-1H-pyrido[2,3-d][1,3]diazepin-2(3H)-one], in assay [1], the IC50 was 10 to 100 nM and the Emax was greater than 75%. Also, in assay [2], the IC50 is greater than 10000 nM and the Emax was less than 10%. In assay [3], the EC50 is greater than 10000 nM and the Emax was less than 10%.
Consider `Oc1cccc2ccc(OCCCCN3CCc4sccc4C3)nc12` [Compound 18, 2-(4-(6,7-dihydrothieno[3,2-c]pyridin-5(4H)-yl)butoxy)quinolin-8-ol], for which the IC50 in assay [1] was 1000 to 10000 nM; in assay [2] it was greater than 10000 nM. Also, the Emax in assay [1] is greater than 75%; in assay [2], less than 10%; in assay [3], less than 10%. The compound also displayed an EC50 in assay [3] greater than 10000 nM.
In the case of `COc1cccnc1N1CCN(CCCCOc2cccc(-c3cc[nH]n3)n2)CC1` [Compound 47, 1-(4-((6-(1H-pyrazol-3-yl)pyridin-2-yl)oxy)butyl)-4-(3-methoxypyridin-2-yl)piperazine], in assay [1], the IC50 is less than 10 nM and the Emax lay in the range of 50 to 75%. Also, in assay [2], the half-inhibitory concentration (IC50) was less than 10 nM and the Emax is 50 to 75%. In assay [3], the EC50 is less than 10 nM and the Emax was in the range of 10 to 25%.
`N#Cc1ccc2c(c1)CCN(CCCCOc1ccc3c(n1)NC(=O)CC3)C2` [Compound 73, 2-(4-((7-oxo-5,6,7,8-tetrahydro-1,8-naphthyridin-2-yl)oxy)butyl)-1,2,3,4-tetrahydroisoquinoline-6-carbonitrile]: in assay [1], the IC50 lay within 100 to 1000 nM and the Emax was greater than 75%. In addition, in assay [2], the half-maximal inhibitory concentration (IC50) is greater than 10000 nM and the Emax was less than 10%. For the same compound, in assay [3], the concentration for a half-maximal effect (EC50) was greater than 10000 nM and the Emax is less than 10%.
As to `O=C1NCCc2ccc(OCCCCN3CCc4sccc4C3)nc2N1` [Compound 86, 8-(4-(6,7-dihydrothieno[3,2-c]pyridin-5(4H)-yl)butoxy)-4,5-dihydro-1H-pyrido[2,3-d][1,3]diazepin-2(3H)-one], in assay [1], the IC50 was 10 to 100 nM and the Emax was greater than 75%. In assay [2], the half-maximal inhibitory concentration (IC50) is greater than 10000 nM and the Emax is less than 10%. Besides, in assay [3], the EC50 is greater than 10000 nM and the Emax was less than 10%.
As to `c1cc(OCCCCN2CCc3ccccc3C2)nc(-c2cc[nH]n2)c1` [Compound 44, 2-(4-((6-(1H-pyrazol-3-yl)pyridin-2-yl)oxy)butyl)-1,2,3,4-tetrahydroisoquinoline], the values for the 50% inhibitory concentration (IC50) in assay [1] and in assay [2] were 10 to 100 nM and less than 10 nM, respectively. Further, the Emax in assay [1] is greater than 75%; in assay [2], 10 to 25%; in assay [3] it was 10 to 25%. In assay [3], this compound showed a half-maximal effective concentration (EC50) of less than 10 nM.

The IC50 is the concentration needed to halve the response being measured. A lower IC50 goes with greater potency. The EC50 is the midpoint of the concentration-response curve. Read a low EC50 as higher potency in that assay.
